Key:
[1] = target: Bromodomain-containing protein 4 (Homo sapiens, UniProt O60885); experiment: (§1) TR-FRET In-Vitro Binding Assays for BRD2, BRD3, and BRD4: All assays were performed in 384 well microtiter plates. Each assay plate contained 8-point serial dilutions for 40 test compounds, plus 16 high- and 16 low controls. Liquid handling and incubation steps were done on an Innovadyne Nanodrop Express equipped with a robotic arm (Thermo CatX, Perkin Elmer/Caliper Twister II) and an incubator (Liconic STX40, Thermo Cytomat 2C450). The assay plates were prepared by addition of 50 nl per well of compound solution in 90% DMSO HummingBird nanodispenser (Zinsser Analytic). The assay was started by stepwise addition of 4.5 μl per well of bromo domain protein (50 mM HEPES, pH 7.5, 0.005% Tween20, 0.1% BSA, 50 mM NaCl, 45 nM His-Brd2(60-472) or 45 nM His-Brd3(20-477) or 45 nM His-Brd4(44-477) all proteins produced in-house) and 4.5 μl per well of peptide solution (50 mM HEPES, pH 7.5, 0.005% Tween20, 0.1% BSA, 50 mM NaCl, 60 nM acetyl-histone H4 (AcK 5, 8, 12, 16) (Biosyntan GmbH)). Reactions were incubated at 30° C. for 35 minutes. Subsequently 4.5 μl per well detection mix (50 mM HEPES, pH 7.5, 0.005% Tween20, 0.1% BSA, 50 mM NaCl, 3 nM Eu-labeled anti-His6 antibody, 21 nM streptavidin-allophycocyanin) were added. After 35 minutes incubation at 30° C., plates were measured in a Perkin Elmer EnVision multilabel reader. Concentrations causing 50% inhibition (1050) values were determined from percent inhibition values at different compound concentrations by non-linear regression analysis.
[2] = target: Bromodomain-containing protein 3 (Homo sapiens, UniProt Q15059); experiment: as §1
Chain of Bromodomain-containing protein 3 (Q15059 whole entry): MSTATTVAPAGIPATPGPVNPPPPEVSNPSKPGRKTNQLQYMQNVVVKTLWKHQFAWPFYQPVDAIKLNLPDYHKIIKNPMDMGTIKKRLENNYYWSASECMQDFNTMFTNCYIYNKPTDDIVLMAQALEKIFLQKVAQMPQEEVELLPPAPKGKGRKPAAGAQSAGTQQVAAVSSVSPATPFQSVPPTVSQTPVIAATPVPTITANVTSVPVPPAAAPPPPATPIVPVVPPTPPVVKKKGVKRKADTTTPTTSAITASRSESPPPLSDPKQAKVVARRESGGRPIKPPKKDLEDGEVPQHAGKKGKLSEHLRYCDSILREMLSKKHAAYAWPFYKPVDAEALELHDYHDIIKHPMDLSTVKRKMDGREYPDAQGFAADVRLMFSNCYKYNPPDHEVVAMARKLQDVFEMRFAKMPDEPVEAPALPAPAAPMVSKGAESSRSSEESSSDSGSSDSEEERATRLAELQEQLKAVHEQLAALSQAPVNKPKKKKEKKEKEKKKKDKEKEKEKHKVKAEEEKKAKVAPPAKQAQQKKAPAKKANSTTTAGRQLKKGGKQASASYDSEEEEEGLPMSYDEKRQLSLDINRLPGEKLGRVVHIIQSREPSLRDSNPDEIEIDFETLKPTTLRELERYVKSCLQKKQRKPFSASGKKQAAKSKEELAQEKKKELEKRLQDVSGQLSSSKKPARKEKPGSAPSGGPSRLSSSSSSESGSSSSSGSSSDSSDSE

CREB-binding protein = CREB-binding protein (Homo sapiens, UniProt Q92793); experiment: AlphaScreen In-Vitro Binding Assay for CREBBP: In order to assess bromodomain selectivity, we set up a binding assay using the bromodomain encoded by the CREBBP gene. […] Reactions were incubated at 30° C. for 35 minutes. Subsequently 4.5 μl per well detection mix (50 mM HEPES, pH 7.5, 0.005% Tween20, 0.02% BSA, 150 mM NaCl, 45 μg/ml Ni-chelate acceptor beads, 45 μg/ml streptavidin-donor beads) (Perkin Elmer)) were added. After 60 minutes incubation at room temperature, plates were measured in a Perkin Elmer EnVision multilabel reader. IC50 values were determined from percent inhibition values at different compound concentrations by non-linear regression analysis.
Chain of CREB-binding protein (Q92793 whole entry): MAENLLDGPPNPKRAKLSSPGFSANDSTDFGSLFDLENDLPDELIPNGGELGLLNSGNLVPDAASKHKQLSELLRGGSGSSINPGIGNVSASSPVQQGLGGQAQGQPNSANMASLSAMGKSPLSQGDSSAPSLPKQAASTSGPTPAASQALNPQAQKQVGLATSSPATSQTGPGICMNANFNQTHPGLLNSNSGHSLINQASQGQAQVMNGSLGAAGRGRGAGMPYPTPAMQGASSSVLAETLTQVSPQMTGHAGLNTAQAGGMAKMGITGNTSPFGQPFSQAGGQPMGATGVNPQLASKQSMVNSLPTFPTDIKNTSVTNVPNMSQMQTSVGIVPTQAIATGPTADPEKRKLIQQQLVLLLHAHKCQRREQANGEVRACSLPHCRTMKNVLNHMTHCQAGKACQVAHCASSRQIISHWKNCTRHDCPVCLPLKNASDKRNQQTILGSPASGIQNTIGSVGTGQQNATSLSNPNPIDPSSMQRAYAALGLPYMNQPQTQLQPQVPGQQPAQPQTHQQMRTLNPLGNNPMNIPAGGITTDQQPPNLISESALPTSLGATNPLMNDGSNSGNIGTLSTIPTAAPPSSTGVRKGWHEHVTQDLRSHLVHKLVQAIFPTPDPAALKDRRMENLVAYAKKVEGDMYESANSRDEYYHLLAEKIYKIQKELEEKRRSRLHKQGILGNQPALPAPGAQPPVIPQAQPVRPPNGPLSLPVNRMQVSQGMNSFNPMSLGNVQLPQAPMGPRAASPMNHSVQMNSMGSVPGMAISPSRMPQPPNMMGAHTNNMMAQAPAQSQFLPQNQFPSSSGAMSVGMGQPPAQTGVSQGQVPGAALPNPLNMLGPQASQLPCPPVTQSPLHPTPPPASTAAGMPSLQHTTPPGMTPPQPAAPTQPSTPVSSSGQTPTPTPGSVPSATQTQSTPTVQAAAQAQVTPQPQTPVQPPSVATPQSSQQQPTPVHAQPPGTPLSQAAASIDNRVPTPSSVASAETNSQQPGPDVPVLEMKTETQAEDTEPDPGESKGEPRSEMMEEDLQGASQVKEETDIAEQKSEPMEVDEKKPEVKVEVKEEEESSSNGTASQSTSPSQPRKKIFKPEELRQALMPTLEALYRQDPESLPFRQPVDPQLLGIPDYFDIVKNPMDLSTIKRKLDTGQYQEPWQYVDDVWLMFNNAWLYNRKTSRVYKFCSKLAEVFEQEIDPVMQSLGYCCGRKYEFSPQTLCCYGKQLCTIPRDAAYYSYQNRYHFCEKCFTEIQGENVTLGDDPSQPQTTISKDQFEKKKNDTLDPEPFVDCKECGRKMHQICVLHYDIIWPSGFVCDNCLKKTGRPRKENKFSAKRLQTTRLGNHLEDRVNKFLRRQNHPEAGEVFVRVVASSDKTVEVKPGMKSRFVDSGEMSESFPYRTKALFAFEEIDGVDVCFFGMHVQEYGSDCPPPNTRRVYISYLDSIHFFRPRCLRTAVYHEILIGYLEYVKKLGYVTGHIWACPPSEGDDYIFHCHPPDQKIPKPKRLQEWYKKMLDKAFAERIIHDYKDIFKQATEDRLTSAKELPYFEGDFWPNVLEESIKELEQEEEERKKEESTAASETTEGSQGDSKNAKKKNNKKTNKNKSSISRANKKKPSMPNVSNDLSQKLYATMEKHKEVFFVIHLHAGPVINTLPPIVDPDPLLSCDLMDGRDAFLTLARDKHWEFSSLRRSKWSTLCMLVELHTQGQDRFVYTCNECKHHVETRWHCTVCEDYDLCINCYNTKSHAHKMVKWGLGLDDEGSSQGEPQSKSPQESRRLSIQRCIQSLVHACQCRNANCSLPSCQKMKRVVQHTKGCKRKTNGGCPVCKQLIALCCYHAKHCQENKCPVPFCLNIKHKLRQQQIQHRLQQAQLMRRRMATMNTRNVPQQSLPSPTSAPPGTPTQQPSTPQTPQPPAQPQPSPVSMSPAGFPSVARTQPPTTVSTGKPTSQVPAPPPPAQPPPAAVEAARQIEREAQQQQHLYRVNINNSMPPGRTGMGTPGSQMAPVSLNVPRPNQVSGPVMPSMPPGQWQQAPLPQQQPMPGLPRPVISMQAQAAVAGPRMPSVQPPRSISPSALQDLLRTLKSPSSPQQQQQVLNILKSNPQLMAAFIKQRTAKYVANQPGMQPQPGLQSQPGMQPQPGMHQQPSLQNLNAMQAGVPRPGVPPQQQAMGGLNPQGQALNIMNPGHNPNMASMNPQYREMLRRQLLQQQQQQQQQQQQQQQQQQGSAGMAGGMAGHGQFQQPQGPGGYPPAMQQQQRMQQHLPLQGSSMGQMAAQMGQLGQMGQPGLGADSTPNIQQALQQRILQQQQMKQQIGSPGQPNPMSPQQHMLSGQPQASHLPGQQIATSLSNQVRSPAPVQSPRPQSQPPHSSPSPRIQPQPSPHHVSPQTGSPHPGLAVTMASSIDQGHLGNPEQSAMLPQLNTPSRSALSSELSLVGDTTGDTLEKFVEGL

[3] = target: Bromodomain-containing protein 2 (Homo sapiens, UniProt P25440); experiment: as §1
Chain of Bromodomain-containing protein 2 (P25440 whole entry): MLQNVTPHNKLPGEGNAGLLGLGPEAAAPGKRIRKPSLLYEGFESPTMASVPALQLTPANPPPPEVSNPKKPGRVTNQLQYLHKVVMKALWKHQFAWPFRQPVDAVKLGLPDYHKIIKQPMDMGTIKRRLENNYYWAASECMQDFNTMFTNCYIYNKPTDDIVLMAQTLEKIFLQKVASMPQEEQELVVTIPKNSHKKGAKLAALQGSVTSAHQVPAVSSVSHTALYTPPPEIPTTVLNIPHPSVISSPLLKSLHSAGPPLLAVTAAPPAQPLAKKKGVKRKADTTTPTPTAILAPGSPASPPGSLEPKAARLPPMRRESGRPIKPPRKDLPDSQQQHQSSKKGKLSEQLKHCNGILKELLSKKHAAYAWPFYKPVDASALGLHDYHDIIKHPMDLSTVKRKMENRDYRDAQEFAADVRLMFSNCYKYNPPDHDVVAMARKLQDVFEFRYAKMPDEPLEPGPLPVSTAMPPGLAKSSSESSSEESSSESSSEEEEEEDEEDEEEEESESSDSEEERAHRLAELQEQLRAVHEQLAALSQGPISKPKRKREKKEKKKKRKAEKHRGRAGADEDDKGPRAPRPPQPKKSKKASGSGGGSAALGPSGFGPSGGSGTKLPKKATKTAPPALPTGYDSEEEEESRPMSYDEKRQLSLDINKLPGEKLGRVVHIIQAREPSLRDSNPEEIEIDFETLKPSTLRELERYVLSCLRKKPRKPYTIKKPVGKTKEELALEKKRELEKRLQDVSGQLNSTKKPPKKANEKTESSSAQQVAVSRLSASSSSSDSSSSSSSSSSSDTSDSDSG

SMILES | IC50 [1] [nM] | IC50 [2] [nM] | IC50 (CREB-binding protein) [nM] | IC50 [3] [nM]
CCOc1ncccc1-n1nc(C)c2c1C(c1ccc(Cl)cc1)N(c1cc(C)c(=O)n(C)c1)C2=O (stereo unspecified) | 79 | 62 | 3100 | –
COc1ncccc1-n1nc(C)c2c1C(c1ccc(Cl)cc1)N(c1cc(C)c(=O)n(C)c1)C2=O (stereo unspecified) | 86 | – | 4000 | 78
